US6706716B2, “Compounds specific for the human α1d adrenergic receptor and uses thereof” (Synaptic Pharmaceutical Corporation, priority 1998, dated 2004)
Entries after “also recorded” stand apart in the source; their conditions may differ.

How the values were obtained:
[1] = target: T1, α1B adrenoceptor (Rattus norvegicus, UniProt P15823); experiment: Isolated tissue functional assay, spleen (phenylephrine induced contraction)
T1 construct: from tissue; host or cells: rat splenic preparations
T1 sequence (P15823 1-515): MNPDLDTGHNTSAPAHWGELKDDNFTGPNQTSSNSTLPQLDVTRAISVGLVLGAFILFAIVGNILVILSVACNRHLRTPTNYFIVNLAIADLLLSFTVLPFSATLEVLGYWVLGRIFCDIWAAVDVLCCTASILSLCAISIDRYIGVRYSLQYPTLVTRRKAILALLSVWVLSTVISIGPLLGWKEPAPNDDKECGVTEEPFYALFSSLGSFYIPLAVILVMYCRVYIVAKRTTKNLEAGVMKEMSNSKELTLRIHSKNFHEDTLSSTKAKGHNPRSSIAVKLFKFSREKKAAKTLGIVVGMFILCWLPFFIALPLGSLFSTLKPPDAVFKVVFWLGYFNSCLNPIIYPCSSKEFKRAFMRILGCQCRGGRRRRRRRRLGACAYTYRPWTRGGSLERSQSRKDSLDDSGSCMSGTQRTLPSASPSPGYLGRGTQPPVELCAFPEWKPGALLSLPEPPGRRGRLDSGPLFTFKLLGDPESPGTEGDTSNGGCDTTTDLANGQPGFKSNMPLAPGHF
Description: (§1) The functional in vitro activity of Compound 7 was characterized in several pharmacologically defined α1 adrenoceptor subtype isolated tissue assays (Aboud et al., 1993). (Rat epididymal vas deferens was used to determine α1A functional responses, spleen was used for α1B responses, and thoracic aorta was used for α1D responses.) Experiments were carried out according to the method of Deng et al., 1996, with minor buffer and tissue setup tension modifications. Krebs additionally contained 0.1 μM desipramine and 10 μM corticosterone to block neuronal and extra neuronal uptake, respectively, and 0.3 μM idazoxan to eliminate α2 mediated responses. Aorta and vas deferens strips were set at 0.5 g resting tension, and the splenic preparations were tensioned to 1 g. All preparations were equilibrated for 1 hr before the addition of drugs.
(§2) Additionally, its antagonist potency was determined by its ability to antagonize phenylephrine (PE) induced contraction in each of these preparations. The degree of shift of the PE agonist dose response-curve in the presence of Compound 7 was measured and pKB values were calculated (mean±s.e.m.).

[2] = tested on: conscious, normotensive rats; experiment: Mean arterial blood pressure in conscious, normotensive rats; type: in vivo, rat; details: 4.0 mg/kg i.v., 0-60 min
Description: Rats were anesthetized and a PE50 chronic indwelling cannula was placed in the abdominal aorta for measurement of blood pressure. On the following day, 5 rats each were administered vehicle (1% DMSO) or Compound 7 (4.0 mg/kg in 1% DMSO, i.v.) and mean blood pressure measurements were recorded at 0, 5, 30, and 60 minutes thereafter.

[3] = target: T2, α1D adrenergic receptor (Rattus norvegicus, UniProt P23944); experiment: Isolated tissue functional assay, thoracic aorta (phenylephrine induced contraction)
T2 construct: from tissue; host or cells: rat thoracic aorta strips
T2 sequence (P23944 1-561): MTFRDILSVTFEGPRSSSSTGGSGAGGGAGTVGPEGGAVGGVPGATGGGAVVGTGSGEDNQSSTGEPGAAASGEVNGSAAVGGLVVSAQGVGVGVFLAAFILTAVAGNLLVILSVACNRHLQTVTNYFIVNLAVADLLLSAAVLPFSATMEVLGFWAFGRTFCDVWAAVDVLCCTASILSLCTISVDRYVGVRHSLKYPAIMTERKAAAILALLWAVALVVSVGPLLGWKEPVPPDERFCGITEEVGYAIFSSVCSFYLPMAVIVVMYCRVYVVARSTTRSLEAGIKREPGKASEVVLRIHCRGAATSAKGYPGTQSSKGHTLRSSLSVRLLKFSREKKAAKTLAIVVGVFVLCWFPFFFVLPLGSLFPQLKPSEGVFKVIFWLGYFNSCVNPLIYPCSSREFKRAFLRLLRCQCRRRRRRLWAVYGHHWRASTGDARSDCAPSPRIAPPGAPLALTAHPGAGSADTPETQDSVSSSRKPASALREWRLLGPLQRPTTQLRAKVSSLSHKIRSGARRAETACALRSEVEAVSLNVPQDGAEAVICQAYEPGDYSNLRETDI
Description: as §1, §2

[4] = target: T3, human 5-HT1Dα (5-HT1D) receptor (Homo sapiens, UniProt P28221); experiment: Competition binding ([3H]serotonin) at cloned human 5-HT1Dα (5-HT1D) receptor; details: read-out: binding affinity (pKi) 5-HT1Dα (5-HT1D) (converted)
T3 construct: expressed in transfected cells; host or cells: LM(tk-) clonal cell line Ltk-8-30-84 (ATCC CRL 10421)
Description: 5-HT1Dα (5-HT1D) and 5-HT1Dβ (5-HT1B) receptors: The cell lysates of the LM(tk-) clonal cell line stably transfected with the genes encoding each of these 5-HT receptor subtypes were prepared as described above. The cell line for the 5-HT1Dα (5-HT1D) receptor, designated as Ltk-8-30-84, was deposited on Apr. 17, 1990, and accorded ATCC Accession No. CRL 10421. The cell line for the 5-HT1Dβ (5-HT1B) receptor, designated as Ltk-11, was deposited on Apr. 17, 1990, and accorded ATCC Accession No. CRL 10422. These preparations were suspended in 50 mM Tris-HCl buffer (pH 7.4 at 37° C.) containing 10 mM MgCl2, 0.2 mM EDTA, 10 μM pargyline, and 0.1% ascorbate. […] Nonspecific binding was determined in the presence of 10 μM serotonin. The bound radioligand was separated by filtration through GF/B filters using a cell harvester.

[5] = tested on: urethane-anesthetized rats; experiment: Blood pressure in urethane-anesthetized, normotensive rats; type: in vivo, rat
Description: Rats were anesthetized with urethane and PE50 cannulae were placed in the femoral artery and vein for blood pressure monitoring and drug administration, respectively. After stabilization, rats were administered 200 μl saline vehicle or increasing doses of BMY 7378 or Compound 7 at 10 minutes intervals until the reduction in blood pressure reached a plateau. The 5-HT1A-selective antagonist WAY 100635 (1 mg/kg) was then administered and blood pressure monitored for an additional 10 minutes.

T3 sequence (P28221 whole entry): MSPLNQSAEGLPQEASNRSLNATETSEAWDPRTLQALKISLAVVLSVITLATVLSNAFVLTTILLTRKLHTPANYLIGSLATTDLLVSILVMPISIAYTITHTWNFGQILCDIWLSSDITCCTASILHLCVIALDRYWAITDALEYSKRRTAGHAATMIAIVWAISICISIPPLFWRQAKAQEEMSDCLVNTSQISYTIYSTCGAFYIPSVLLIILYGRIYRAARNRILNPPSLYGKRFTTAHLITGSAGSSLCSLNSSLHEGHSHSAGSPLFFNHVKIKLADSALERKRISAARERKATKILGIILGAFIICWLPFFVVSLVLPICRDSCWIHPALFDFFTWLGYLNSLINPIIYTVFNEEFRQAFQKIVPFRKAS

In the case of `O=C1CC2(CCCC2)CC(=O)N1CCN1CCN(c2cc(F)c(F)cc2F)CC1` [Compound 7, 8-{2-[4-(2,4,5-Trifluorophenyl)piperazin-1-yl]ethyl}-8-azaspiro[4.5]decane-7,9-dione], the agonist activity ([1]; concentrations up to 10 μM, rat spleen (α1B model)) is reported as “failed to produce agonist activity”, the Kb ([1]; rat spleen (α1B), mean±s.e.m., read-out: pKB (antagonism of phenylephrine induced contraction) (converted)) is reported as 200 nM and the “fold less effective than in the aorta” value ([1]; spleen versus aorta) is reported as “approximately 60 fold”. The “effect on mean blood pressure” value [2] was “no reduction in blood pressure”, the agonist activity ([3]; concentrations up to 10 μM, rat thoracic aorta (α1D model)) was “failed to produce agonist activity” and the Kb ([3]; rat thoracic aorta (α1D), mean±s.e.m., read-out: pKB (antagonism of phenylephrine induced contraction) (converted)) was 3.16 nM. The Ki [4] was 794 nM, the “reversal of the blood pressure effect by WAY 100635” value ([5]; 5-HT1A-selective antagonist WAY 100635 1 mg/kg given after plateau) was “not reversed” and the “effect on systolic, diastolic and mean blood pressure” value ([5]; urethane-anesthetized rats, increasing i.v. doses at 10 min intervals) was “reduces blood pressure in anesthetized rat, although to a lesser extent than BMY 7378; also recorded: only a minor reduction in blood pressure”.
